Reference: patent publication US20050159427A1, “N-acylsulfonamide apoptosis promoters” (priority 2003, published 2005)

System: A549 human non-small cell lung carcinoma cells
Assay: Paclitaxel combination on A549 cells
Type: cell-based
Settings: stated after the paclitaxel combination results on A549 and PC-3 cells

CN(C)CC[C@@H](CSc1ccccc1)Nc1ccc(S(=O)(=O)NC(=O)c2ccc(N3CCN(Cc4ccccc4-c4ccc(Cl)cc4)CC3)cc2)cc1[N+](=O)[O-] [enantiomer of EXAMPLE 2, N-(4-(4-((4′-chloro(1,1′-biphenyl)-2-yl)methyl)piperazin-1-yl)benzoyl)-4-(((1S)-3-(dimethylamino)-1-((phenylsulfanyl)methyl)propyl)amino)-3-nitrobenzenesulfonamide]
efficacy relative to EXAMPLE 2: less efficacious
